# Measured values as given in ChEMBL document CHEMBL1129202, “Palladium-catalysed synthesis of some biologically active 5, 6-disubstituted uracils” (Bioorg Med Chem Lett, 1996).
# Tested on: CCRF-CEM
# Assay: In vitro cytotoxic activity against CCRF-CEM human lymphoblastoid cells in culture.
# Type: functional, cell-based
row,Structure (SMILES),IC50 [nM]
1,Cc1ccc(C(=O)/C=C/c2nc(O)nc(O)c2Cl)cc1,12200
2,Cc1ccc(C(=O)/C=C/c2nc(O)nc(O)c2Br)cc1,2600
3,Cc1ccc(C(=O)/C=C/c2nc(O)nc(O)c2I)cc1,1400
4,COc1ccc(C(=O)/C=C/c2cc(O)nc(O)n2)cc1,2200
5,Cc1ccc(C(=O)/C=C/c2cc(O)nc(O)n2)cc1,1800
